Data published in US20260364124A1, “ANTI-C. DIFFICILE SMALL MOLECULE METABOLITES FROM DIET AND GUT MICROBIOME” (The Children's Medical Center Corporation, priority 2023, published 2026).
“Also recorded” adds a separate entry of the source.

Legend:
C. difficile M7404 = experiment: In vitro polydatin bioactivation and C. difficile antagonism by conditioned (spent) media of B. uniformis AgshD; assay type: cell-based, Clostridioides difficile; details: polydatin 500 μM, 1/2-diluted, C. difficile M7404 growth 12 h (FIG. 5A)
Protocol: FIGS. 5A and 5B show microbiome-mediated polyphenol aglycone liberation. […] Step 2: Spent media was filter-sterilized. Step 3: C. difficile was grown in spent media from either vehicle or polydatin (top).
Generation of Bacteroides gene deletion mutants: Clean deletion mutants were created by allelic replacement whereby Bacteroides uniformis ATCC 8492 gshD (BACUNI_00919)was deleted. A modified pKNOCK-bla-ermGb suicide vector, pKNOCK-bla-ermGb_pheS*, that was previously engineered with a counter-selection system mediated by a variant phenylalanyl-tRNA synthetase (PheSA303G), lethal in the presence of 4-chloro-phenylalanine was leveraged. To generate deletion constructs, 1 kb regions flanking the genomic region-of-interest were amplified by PCR (Platinum SuperFi PCR Master Mix), purified, and cloned into the pKNOCK-bla-ermGb_pheS* plasmid in a three-piece ligation reaction. To mobilize resulting plasmids into Bacteroides, a triparental mating strategy was implemented. Overnight cultures of Bacteroides grown in BSG were diluted 50-fold into fresh pre-reduced BSG and grown to early exponential phase (OD600 ~0.1). The recipient strain was centrifuged at 4,000 rpm for 5 minutes and resuspended in 200 μL of 1× PBS. One-day-old E. coliDH5α lambda pir donor strain and E. coliDH5α helper strain with pRK 231 were scrapped from LB agar plates into 200 μL of 1× PBS. […]

C. difficile isolates = experiment: Phytochemical microbial killing assay, diverse C. difficile isolates; assay type: cell-based, Clostridioides difficile
Protocol: FIG. 3B provides a heatmap of growth of 20 Clostridioides difficile isolates in the absence of presence of the polyphenolic glycoside polydatin or the Bacteroides liberated aglycone resveratrol. […] Growth induction or inhibition is measured as the ratio of growth in media (AUC) supplemented with glucose and 150 μM polydatin or resveratrol versus growth in media (AUC) supplemented with glucose and vehicle. Value>1 is representative of enhanced growth in compound and value <1 is representative of inhibition of growth in compound.
Bacterial isolates were grown in vitro in media plus compound. Killing was measured by bacterial culture optical density (proxy for amount of bacteria in a culture).
Phytochemical microbial killing assays: All gut pathogen isolates were grown on brain-heart-infusion supplemented with hemin (50 mg/L) and vitamin K1 (0.25 mg/L) (BHIS) agar plates or in basal media (BSG; proteose peptone (20 g/L), yeast (5 g/L), NaCl (5 g/L), glucose (5 g/L), potassium phosphate dibasic (5 g/L), cysteine (0.5 g/L), hemin (50 mg/L), and vitamin K1 (0.25 mg/L). Isolates were recovered on and grown in pre-reduced media in a Coy anaerobic chamber (Coy Labs). To determine the fitness effects of phloridzin hydrate (TCI), phloretin (TCI), polydatin (TCI), and resveratrol (TCI) on enteric pathogen fitness, each pathogen isolate was recovered on a BHIS agar plate and incubated anaerobically at 37 °C for 48 h. A starter culture (1 mL) of BSG was inoculated with C. difficile and grown for 15 h. This starter culture was then used to inoculate a BSG sub-culture (1 mL) at a final dilution of 1:10. This sub-culture was grown for 3 h to an OD600~0.5 before being used to inoculate experimental cultures at a final dilution of 1:50. The experimental media consisted of a modified YCFA media (mYCFA; casitone (2.5 g/L), yeast extract (0.625 g/L), cysteine (0.5 g/L), magnesium sulfate heptahydrate (f.c. 365 μM), calcium chloride dihydrate (f.c. 610 μM), sodium bicarbonate (4 g/L), dipotassium phosphate (0.45 g/L), monopotassium phosphate (0.45 g/L), sodium chloride (0.9 g/L), sodium acetate (2.71 g/L), Hemin (50 mg/L), Vitamin K1 (0.25 mg/L), ferrous sulfate (4 μg/mL), ATCC vitamin mix (1% v/v)) supplemented with glucose (15 mM, Sigma) plus each compound (150 μM) or glucose (15 mM, Sigma) plus DMSO (0.15%, Sigma). Bacterial growth was monitored by measuring the optical density at 600 nm (OD600) of each culture in a 384 well plate with an Epoch2 spectrophotometer (BioTek Instruments) and MicroPlate stacker (Agilent BioTek) for 24 hours.

OC[C@H]1O[C@@H](Oc2cc(O)cc(/C=C/c3ccc(O)cc3)c2)[C@H](O)[C@@H](O)[C@@H]1O [polydatin]
anti-C. difficile activity of conditioned media from B. uniformis gshD mutant grown with polydatin (C. difficile M7404): ablated in B. uniformis AgshD
growth inhibition of Clostridioides difficile (C. difficile isolates; 150 μM, 20 C. difficile isolates, growth ratio (AUC) vs vehicle (FIG. 3B)): did not; also recorded: but not its parent glycoside polydatin
killing / growth inhibition of diverse C. difficile isolates (C. difficile isolates; in vitro, media plus compound, culture optical density (FIG. 4)): did not
